Biological target: T1, Tyrosine-protein phosphatase non-receptor type 1 (Homo sapiens, UniProt P18031)
T1 sequence (P18031 whole entry): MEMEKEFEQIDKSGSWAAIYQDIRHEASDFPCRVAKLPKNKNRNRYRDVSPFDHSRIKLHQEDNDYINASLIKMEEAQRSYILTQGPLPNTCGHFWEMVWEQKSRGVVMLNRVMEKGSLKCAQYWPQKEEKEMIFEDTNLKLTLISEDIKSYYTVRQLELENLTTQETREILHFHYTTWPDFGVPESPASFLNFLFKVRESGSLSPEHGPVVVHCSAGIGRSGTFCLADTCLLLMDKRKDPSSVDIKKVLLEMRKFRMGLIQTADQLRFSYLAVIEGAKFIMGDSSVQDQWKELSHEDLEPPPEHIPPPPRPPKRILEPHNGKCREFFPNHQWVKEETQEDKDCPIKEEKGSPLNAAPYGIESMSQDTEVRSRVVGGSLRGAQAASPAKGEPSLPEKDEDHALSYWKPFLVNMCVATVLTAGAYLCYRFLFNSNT
Assay: Inhibition of recombinant human PTP1B assessed as hydrolysis of p-nitrophenyl phosphate after 30 mins

IC50 | Structure (SMILES)
17.3 µM | C=CC(C)(C)c1cc(/C=C/C(=O)c2ccc(O)cc2)c(OC)cc1OC(C)=O
19.2 µM | C=CC(C)(C)c1cc(/C=C/C(=O)c2ccc(OC(C)=O)cc2)c(OC)cc1O
> 50 µM | C=CC(C)(C)c1cc(/C=C/C(=O)c2ccc(OC(C)=O)cc2)c(OC)cc1OC(C)=O
19.4 µM | C=CC(C)(C)c1cc(/C=C/C(=O)c2ccc(OC)cc2)c(OC)cc1OC(C)=O
29.2 µM | C=CC(C)(C)c1cc(/C=C/C(=O)c2ccc(OC(C)=O)cc2)c(OC)cc1OC

Second part, the molecule before the results:

Structure (SMILES) | IC50
C=C(C)C(C)c1cc(/C=C/C(=O)c2ccc(O)cc2)c(OC)cc1O (centres undefined) | 20.7 µM
C=CC(C)(C)c1cc(/C=C/C(=O)c2ccc(OC)cc2)c(OC)cc1O | 11.7 µM
C=CC(C)(C)c1cc(/C=C/C(=O)c2ccc(O)cc2)c(OC)cc1OC | 18.3 µM
C=CC(C)(C)c1cc(/C=C/C(=O)c2ccc(OC)cc2)c(OC)cc1OC | 19.8 µM
COc1c(/C=C/C(=O)c2ccc(O)cc2)ccc(O)c1CC=C(C)C | 30.9 µM
COc1cc(O)ccc1/C=C/C(=O)c1ccc(O)cc1 [ECHINATIN] | > 50 µM
C=CC(C)(C)c1cc(/C=C/C(=O)c2ccc(O)cc2)c(OC)cc1O [LICOAGROCHACONE A] | 19.1 µM
O=C1C[C@@H](c2ccc(O)cc2)Oc2cc(O)ccc21 [LIQUIRTIGENIN] | > 50 µM
O=C(/C=C/c1ccc(O)cc1)c1ccc(O)cc1O [ISOLIQUIRITIGENIN] | > 50 µM

From ChEMBL document CHEMBL1155313, “Inhibitory effect of chalcones and their derivatives from Glycyrrhiza inflata on protein tyrosine phosphatase 1B” (Bioorg Med Chem Lett, 2009)
